Reference: patent US12227500B2, “Substituted pyrrolo[2,3-b]pyridines for suppressing toxic endoplasmic reticulum stress” (THE TRUSTEES OF COLUMBIA UNIVERSITY IN THE CITY OF NEW YORK, priority 2018, dated 2025)
Like-named read-outs stand apart in the source and are kept apart here.

Legend:
MLK3/MAP3K11 = molecular target: T1, MLK3/MAP3K11 (Homo sapiens, UniProt Q16584); assay: Radiolabeled ATP kinase assay (Reaction Biology Corp.), MLK3; format: biochemical; details: 0.1 μM
T1 construct: purchased Reaction Biology Corp
Protocol: (§1) Meanwhile, the same analogs were analyzed in a radiolabeled ATP assay (10 μM ATP; Reaction Biology Corp.) to compare the extent to which they could inhibit the activity of HGK, MLK1, or MLK3 in a cell-free environment (Table S3 and S4).

HGK/MAP4K4 = HGK/MAP4K4 (Homo sapiens, UniProt O95819); assay: Radiolabeled ATP kinase assay (Reaction Biology Corp.), HGK; format: biochemical; set-up: purchased Reaction Biology Corp; details: 10 μM ATP, read-out: % Enzyme Activity (relative to DMSO controls), HGK/MAP4K4, Data 1
Protocol: as §1

[1] = molecular target: T2, panel of 371 human kinases (Homo sapiens, UniProt Q15759); assay: Radiolabeled ATP kinase assay, panel of 371 kinases (Table S6); format: biochemical; details: P38b/MAPK11; 0.1 μM; 10 μM ATP; read-out: % Enzyme Activity (relative to DMSO controls)
T2 construct: purchased Reaction Biology Corp
Excerpt: (§2) ; FIG. 38C). […]. Further targeted analyses, such as genetic knock-down or knock-out, may be warranted to parse the role of these additional kinases in our model of neurodegeneration.

[2] = molecular target: T3, panel of 371 human kinases (Homo sapiens, UniProt Q13557); assay: as above; format: biochemical; details: CAMK2d; 0.1 μM; 10 μM ATP; read-out: % Enzyme Activity (relative to DMSO controls)
T3 construct: purchased Reaction Biology Corp
Excerpt: as §2

[3] = molecular target: T4, panel of 371 human kinases (Homo sapiens, UniProt P24941); assay: as above; format: biochemical; details: 0.1 μM, 10 μM ATP, read-out: % Enzyme Activity (relative to DMSO controls)
T4 construct: purchased Reaction Biology Corp
Excerpt: as §2

[4] = molecular target: T5, panel of 371 human kinases (Homo sapiens, UniProt Q8IW41); assay: as above; format: biochemical; details: MAPKAPK5/PRAK; 0.1 μM; 10 μM ATP; read-out: % Enzyme Activity (relative to DMSO controls)
T5 construct: purchased Reaction Biology Corp
Excerpt: as §2

[5] = molecular target: T6, panel of 371 human kinases (Homo sapiens, UniProt Q86UE8); assay: as above; format: biochemical; details: TLK2; 0.1 μM; 10 μM ATP; read-out: % Enzyme Activity (relative to DMSO controls)
T6 construct: purchased Reaction Biology Corp
Excerpt: as §2

[6] = molecular target: T7, panel of 371 human kinases (Homo sapiens, UniProt Q9Y4K4); assay: as above; format: biochemical; details: for remaining activity at 0.1 µM: KHS/MAP4K5, 10 μM ATP, read-out: % Enzyme Activity (relative to DMSO controls)
T7 construct: purchased Reaction Biology Corp
Excerpt: as §2

[7] = molecular target: T8, panel of 371 human kinases (Homo sapiens, UniProt Q15349); assay: as above; format: biochemical; details: RSK3; 0.1 μM; 10 μM ATP; read-out: % Enzyme Activity (relative to DMSO controls)
T8 construct: purchased Reaction Biology Corp
Excerpt: as §2

[8] = molecular target: T9, panel of 371 human kinases (Homo sapiens, UniProt P42684); assay: as above; format: biochemical; details: ABL2/ARG; 0.1 μM; 10 μM ATP; read-out: % Enzyme Activity (relative to DMSO controls)
T9 construct: purchased Reaction Biology Corp
Excerpt: as §2

[9] = molecular target: T10, panel of 371 human kinases (Homo sapiens, UniProt Q86Z02); assay: as above; format: biochemical; details: HIPK1; 0.1 μM; 10 μM ATP; read-out: % Enzyme Activity (relative to DMSO controls)
T10 construct: purchased Reaction Biology Corp
Excerpt: as §2

[10] = molecular target: T11, panel of 371 human kinases (Homo sapiens, UniProt P04629); assay: as above; format: biochemical; details: TRKA; 0.1 μM; 10 μM ATP; read-out: % Enzyme Activity (relative to DMSO controls)
T11 construct: purchased Reaction Biology Corp
Excerpt: as §2

[11] = molecular target: T12, panel of 371 human kinases (Homo sapiens, UniProt Q9H4A3); assay: as above; format: biochemical; details: WNK1; 0.1 μM; 10 μM ATP; read-out: % Enzyme Activity (relative to DMSO controls)
T12 construct: purchased Reaction Biology Corp
Excerpt: as §2

[12] = molecular target: T13, panel of 371 human kinases (Homo sapiens, UniProt Q9UIK4); assay: as above; format: biochemical; details: DAPK2; 0.1 μM; 10 μM ATP; read-out: % Enzyme Activity (relative to DMSO controls)
T13 construct: purchased Reaction Biology Corp
Excerpt: as §2

[13] = molecular target: T14, panel of 371 human kinases (Homo sapiens, UniProt Q13976); assay: as above; format: biochemical; details: PKG1a; 0.1 μM; 10 μM ATP; read-out: % Enzyme Activity (relative to DMSO controls)
T14 construct: purchased Reaction Biology Corp
Excerpt: as §2

[14] = molecular target: T15, panel of 371 human kinases (Homo sapiens, UniProt P53667); assay: as above; format: biochemical; details: LIMK1; 0.1 μM; 10 μM ATP; read-out: % Enzyme Activity (relative to DMSO controls)
T15 construct: purchased Reaction Biology Corp
Excerpt: as §2

[15] = molecular target: T16, panel of 371 human kinases (Homo sapiens, UniProt P36507); assay: as above; format: biochemical; details: MEK2; 0.1 μM; 10 μM ATP; read-out: % Enzyme Activity (relative to DMSO controls)
T16 construct: purchased Reaction Biology Corp
Excerpt: as §2

[16] = molecular target: T17, panel of 371 human kinases (Homo sapiens, UniProt P50613); assay: as above; format: biochemical; details: CDK7/cyclin H; 0.1 μM; 10 μM ATP; read-out: % Enzyme Activity (relative to DMSO controls)
T17 construct: purchased Reaction Biology Corp
Excerpt: as §2

[17] = molecular target: T18, panel of 371 human kinases (Homo sapiens, UniProt P00519); assay: as above; format: biochemical; details: ABL1; 0.1 μM; 10 μM ATP; read-out: % Enzyme Activity (relative to DMSO controls)
T18 construct: purchased Reaction Biology Corp
Excerpt: as §2

[18] = molecular target: T19, panel of 371 human kinases (Homo sapiens, UniProt Q08881); assay: as above; format: biochemical; details: ITK; 0.1 μM; 10 μM ATP; read-out: % Enzyme Activity (relative to DMSO controls)
T19 construct: purchased Reaction Biology Corp
Excerpt: as §2

[19] = molecular target: T20, panel of 371 human kinases (Homo sapiens, UniProt P06213); assay: as above; format: biochemical; details: IR; 0.1 μM; 10 μM ATP; read-out: % Enzyme Activity (relative to DMSO controls)
T20 construct: purchased Reaction Biology Corp
Excerpt: as §2

[20] = molecular target: T21, panel of 371 human kinases (Homo sapiens, UniProt Q96RR4); assay: as above; format: biochemical; details: CAMKK2; 0.1 μM; 10 μM ATP; read-out: % Enzyme Activity (relative to DMSO controls)
T21 construct: purchased Reaction Biology Corp
Excerpt: as §2

[21] = Plasma and brain concentration after IV injection (FIG. 13B); format: in vivo, mouse; details: 10 mg/kg
Protocol: Drug concentrations were analyzed by LC-MS.

in vitro = details: CD-1, mouse, liver microsomes, pH 7.4
Protocol: To test the metabolic stability of the analogs, an in vitro microsomal stability assay was carried out.
The microsomal stability assay was performed in 96-well format (Perkin-Elmer, StorPlate-96U, PP, 96 well, round bottom). […] A stock solution of the compound to be analyzed (0.8 μL. 5 mM) or ethoxycoumarin (positive control, 0.8 μL, 5 mM) was added and the mixture was warmed to 37° C. for 5 minutes. The mouse microsomes (CD-1, 5 μL, thawed in a 37° C. water bath before use, 20 mg/mL, Life Technologies) were added. At selected time points (0, 15, 30, 45, 60 and 120 minutes) aliquots (15 μL) were withdrawn from the plate and quenched upon addition to cold acetonitrile (60 μL), containing an internal standard (5 μM) in a 96-well plate. The samples were centrifuged at 13,000 rpm for 10 minutes at 4° C. The supernatant (40 μL) was withdrawn and transferred to a sample vial with insert. The samples were analyzed by LC-MS.
LC-MS analysis was performed on a platform comprising a Thermo Scientific Dionex Ultimate 3000 and a Bruker amaZon SL equipped with an electrospray ionization source controlled by Bruker Hystar 3.2. […] The flow rate was maintained at 400 μL/min. The initial flow conditions were 60% solvent A (water containing 0.1% acetic acid) and 40% solvent B (methanol containing 0.1% acetic acid).
Aliquots were taken over the course of two hours and analyzed by HPLG-MS using an internal standard to assess compound stability over time.

T7 sequence (Q9Y4K4 whole entry): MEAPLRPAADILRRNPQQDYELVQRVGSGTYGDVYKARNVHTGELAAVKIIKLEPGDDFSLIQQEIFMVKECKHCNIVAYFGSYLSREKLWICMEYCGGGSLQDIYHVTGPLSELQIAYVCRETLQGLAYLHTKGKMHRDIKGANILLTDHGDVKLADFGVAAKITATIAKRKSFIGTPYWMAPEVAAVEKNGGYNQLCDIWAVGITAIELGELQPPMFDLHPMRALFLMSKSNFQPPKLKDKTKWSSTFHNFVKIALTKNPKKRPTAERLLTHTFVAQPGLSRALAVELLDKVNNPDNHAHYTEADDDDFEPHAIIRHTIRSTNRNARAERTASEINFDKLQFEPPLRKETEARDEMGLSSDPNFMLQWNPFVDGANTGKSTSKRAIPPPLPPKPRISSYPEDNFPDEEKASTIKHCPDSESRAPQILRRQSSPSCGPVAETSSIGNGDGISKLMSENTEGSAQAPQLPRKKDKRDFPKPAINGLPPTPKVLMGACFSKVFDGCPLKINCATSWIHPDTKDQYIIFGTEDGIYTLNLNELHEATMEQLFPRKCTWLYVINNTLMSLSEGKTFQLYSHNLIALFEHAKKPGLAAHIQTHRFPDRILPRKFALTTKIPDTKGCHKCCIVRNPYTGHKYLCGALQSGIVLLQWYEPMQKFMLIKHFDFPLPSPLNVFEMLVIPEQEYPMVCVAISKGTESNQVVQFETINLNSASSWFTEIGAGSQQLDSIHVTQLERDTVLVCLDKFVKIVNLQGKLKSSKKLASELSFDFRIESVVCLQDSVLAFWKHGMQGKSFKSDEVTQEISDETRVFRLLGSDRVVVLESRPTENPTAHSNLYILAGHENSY
T13 sequence (Q9UIK4 whole entry): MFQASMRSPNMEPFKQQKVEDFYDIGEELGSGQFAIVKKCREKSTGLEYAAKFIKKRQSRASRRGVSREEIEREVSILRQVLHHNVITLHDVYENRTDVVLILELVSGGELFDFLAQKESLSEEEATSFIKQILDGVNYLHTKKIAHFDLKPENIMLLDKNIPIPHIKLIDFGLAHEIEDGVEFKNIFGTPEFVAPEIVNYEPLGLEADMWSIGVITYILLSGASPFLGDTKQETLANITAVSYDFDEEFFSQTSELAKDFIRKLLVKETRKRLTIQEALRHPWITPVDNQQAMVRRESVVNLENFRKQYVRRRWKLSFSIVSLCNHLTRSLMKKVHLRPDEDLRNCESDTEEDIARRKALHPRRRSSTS
T14 sequence (Q13976 whole entry): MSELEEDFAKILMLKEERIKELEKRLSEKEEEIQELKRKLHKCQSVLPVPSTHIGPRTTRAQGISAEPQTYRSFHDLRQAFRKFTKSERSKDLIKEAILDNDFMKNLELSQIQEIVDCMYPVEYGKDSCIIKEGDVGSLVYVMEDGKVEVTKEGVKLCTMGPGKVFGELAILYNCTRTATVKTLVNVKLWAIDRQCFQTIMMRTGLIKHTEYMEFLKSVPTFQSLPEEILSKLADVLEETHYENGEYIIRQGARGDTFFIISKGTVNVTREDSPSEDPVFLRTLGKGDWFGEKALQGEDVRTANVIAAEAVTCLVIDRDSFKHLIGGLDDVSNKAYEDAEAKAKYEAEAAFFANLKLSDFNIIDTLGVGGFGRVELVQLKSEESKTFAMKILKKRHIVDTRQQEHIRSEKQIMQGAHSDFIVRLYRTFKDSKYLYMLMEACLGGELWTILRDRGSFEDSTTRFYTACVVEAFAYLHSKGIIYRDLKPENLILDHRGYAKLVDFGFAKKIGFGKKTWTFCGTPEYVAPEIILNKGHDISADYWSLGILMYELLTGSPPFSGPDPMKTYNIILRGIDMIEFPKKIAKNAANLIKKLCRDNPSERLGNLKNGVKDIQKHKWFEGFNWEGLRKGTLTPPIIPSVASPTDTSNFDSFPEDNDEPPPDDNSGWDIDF
Chain of HGK/MAP4K4 (O95819 whole entry): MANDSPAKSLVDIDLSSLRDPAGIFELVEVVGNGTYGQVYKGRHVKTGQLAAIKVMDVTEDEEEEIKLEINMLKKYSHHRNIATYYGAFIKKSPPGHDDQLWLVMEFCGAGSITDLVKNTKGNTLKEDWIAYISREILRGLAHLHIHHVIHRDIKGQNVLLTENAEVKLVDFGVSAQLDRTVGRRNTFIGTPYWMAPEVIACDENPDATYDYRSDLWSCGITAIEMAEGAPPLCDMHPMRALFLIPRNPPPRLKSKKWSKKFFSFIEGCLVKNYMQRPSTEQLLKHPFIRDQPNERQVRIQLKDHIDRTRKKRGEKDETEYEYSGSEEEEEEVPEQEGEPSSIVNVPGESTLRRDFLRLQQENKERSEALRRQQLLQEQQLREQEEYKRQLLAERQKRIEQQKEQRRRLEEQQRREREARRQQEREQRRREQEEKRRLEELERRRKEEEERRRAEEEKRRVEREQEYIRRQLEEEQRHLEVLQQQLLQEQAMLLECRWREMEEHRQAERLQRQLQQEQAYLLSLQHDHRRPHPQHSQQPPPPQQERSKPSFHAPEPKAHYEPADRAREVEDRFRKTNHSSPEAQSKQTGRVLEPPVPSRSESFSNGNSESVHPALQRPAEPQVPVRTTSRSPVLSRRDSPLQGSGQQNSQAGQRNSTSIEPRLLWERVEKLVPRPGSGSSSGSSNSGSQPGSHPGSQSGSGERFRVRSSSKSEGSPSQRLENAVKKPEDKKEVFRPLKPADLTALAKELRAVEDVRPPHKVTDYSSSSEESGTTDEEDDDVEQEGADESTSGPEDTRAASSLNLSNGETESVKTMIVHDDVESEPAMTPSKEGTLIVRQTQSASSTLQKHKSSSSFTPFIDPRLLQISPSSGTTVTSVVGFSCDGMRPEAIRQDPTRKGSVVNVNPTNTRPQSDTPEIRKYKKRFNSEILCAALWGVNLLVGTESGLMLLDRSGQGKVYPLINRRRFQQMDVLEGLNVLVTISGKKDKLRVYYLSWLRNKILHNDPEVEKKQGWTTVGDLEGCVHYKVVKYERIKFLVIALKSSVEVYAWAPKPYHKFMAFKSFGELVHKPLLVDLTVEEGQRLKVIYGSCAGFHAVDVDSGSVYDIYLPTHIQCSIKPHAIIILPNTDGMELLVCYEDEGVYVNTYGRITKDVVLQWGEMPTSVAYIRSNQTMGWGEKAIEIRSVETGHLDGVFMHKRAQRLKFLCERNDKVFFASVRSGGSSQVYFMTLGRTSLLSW
T2 sequence (Q15759 whole entry): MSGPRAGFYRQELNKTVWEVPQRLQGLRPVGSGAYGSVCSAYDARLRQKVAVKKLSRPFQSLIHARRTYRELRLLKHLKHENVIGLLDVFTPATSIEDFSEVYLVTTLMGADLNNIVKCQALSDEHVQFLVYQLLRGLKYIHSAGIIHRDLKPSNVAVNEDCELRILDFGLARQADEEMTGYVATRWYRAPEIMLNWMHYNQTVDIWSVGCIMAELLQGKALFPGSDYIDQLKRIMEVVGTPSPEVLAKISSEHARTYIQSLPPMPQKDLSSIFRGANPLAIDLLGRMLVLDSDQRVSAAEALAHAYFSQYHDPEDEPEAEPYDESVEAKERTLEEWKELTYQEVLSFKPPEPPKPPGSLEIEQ
T21 sequence (Q96RR4 whole entry): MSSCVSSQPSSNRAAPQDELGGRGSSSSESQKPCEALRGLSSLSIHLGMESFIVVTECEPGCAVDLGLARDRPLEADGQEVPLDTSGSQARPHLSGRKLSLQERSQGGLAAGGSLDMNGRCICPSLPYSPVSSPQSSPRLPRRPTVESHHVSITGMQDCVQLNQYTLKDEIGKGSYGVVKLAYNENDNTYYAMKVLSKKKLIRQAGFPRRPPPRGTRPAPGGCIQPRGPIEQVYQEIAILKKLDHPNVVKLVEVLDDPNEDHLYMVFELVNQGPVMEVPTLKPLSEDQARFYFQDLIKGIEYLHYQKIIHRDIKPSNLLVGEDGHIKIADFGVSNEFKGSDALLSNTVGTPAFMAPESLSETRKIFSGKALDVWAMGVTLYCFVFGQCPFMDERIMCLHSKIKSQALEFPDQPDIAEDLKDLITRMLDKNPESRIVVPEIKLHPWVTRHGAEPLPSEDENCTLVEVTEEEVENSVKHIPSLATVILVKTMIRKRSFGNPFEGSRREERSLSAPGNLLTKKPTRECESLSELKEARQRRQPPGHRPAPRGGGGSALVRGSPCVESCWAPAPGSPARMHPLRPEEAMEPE
T6 sequence (Q86UE8 whole entry): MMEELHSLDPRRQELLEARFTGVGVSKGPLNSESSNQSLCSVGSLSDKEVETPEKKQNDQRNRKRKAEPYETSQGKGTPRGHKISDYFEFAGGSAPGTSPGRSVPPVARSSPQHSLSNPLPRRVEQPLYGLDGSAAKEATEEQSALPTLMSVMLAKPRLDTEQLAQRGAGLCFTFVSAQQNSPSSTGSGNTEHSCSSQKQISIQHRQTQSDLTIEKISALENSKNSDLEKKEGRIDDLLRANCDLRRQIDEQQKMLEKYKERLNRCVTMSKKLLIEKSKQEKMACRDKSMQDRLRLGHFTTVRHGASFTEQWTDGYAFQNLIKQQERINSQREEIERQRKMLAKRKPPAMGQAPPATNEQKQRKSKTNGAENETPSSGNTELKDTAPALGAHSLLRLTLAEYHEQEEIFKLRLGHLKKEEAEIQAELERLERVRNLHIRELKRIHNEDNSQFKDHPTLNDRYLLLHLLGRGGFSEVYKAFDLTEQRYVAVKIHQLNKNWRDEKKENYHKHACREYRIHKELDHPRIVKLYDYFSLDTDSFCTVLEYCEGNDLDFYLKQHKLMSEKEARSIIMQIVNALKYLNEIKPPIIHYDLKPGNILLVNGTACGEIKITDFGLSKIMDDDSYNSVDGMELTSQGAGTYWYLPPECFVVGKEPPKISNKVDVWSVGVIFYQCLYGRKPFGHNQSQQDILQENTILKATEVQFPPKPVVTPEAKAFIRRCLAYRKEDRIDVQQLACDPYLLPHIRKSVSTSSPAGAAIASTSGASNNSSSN

Row | SMILES | remaining activity at 0.1 µM [1] | remaining activity at 0.1 µM [2] | remaining activity at 0.1 µM ([3]; CDK2/cyclin A1) | remaining activity at 0.1 µM ([3]; CDK2/cyclin A) | remaining activity at 0.1 µM ([3]; CDK2/cyclin E2) | remaining activity at 0.1 µM ([3]; CDK2/cyclin E) | remaining activity at 0.1 µM ([3]; CDK2/cyclin O) | remaining activity at 0.1 µM [4] | remaining activity at 0.1 µM [5] | remaining activity at 0.1 µM [6] | remaining activity at 0.1 µM [7] | remaining activity at 0.1 µM [8] | remaining activity at 0.1 µM [9] | remaining activity at 0.1 µM [10] | remaining activity at 0.1 µM [11] | remaining activity at 0.1 µM [12] | remaining activity at 0.1 µM [13] | remaining activity at 0.1 µM [14] | remaining activity at 0.1 µM [15] | remaining activity at 0.1 µM [16] | also measured
1 | CN1CCN(Cc2ccc(-c3cnc4[nH]cc(-c5ccc6[nH]ccc6c5)c4c3)cc2)CC1 [Compound 1, 3-(1H-Indol-5-yl)-5-(4-((4-methylpiperazin-1-yl)methyl)phenyl)-1H-pyrrolo[2,3-b]pyridine, reference compound] | 87.4% | 97% | 94.2% | 90.2% | 110% | 96.1% | 102% | 78.5% | 93% | 31.4% | 61.7% | 76.8% | 106% | 69.2% | 117% | 118% | 101% | 112% | 86.7% | 91.4% | remaining activity at 0.1 µM (MLK3/MAP3K11): 10.5%; remaining activity at 0.025 µM (HGK/MAP4K4; [Cmpd] 0.025 μM): 18.5%; remaining activity at 0.1 µM (HGK/MAP4K4; [Cmpd] 0.1 μM): 5.23%; remaining activity at 0.1 µM [17]: 68.2%; remaining activity at 0.1 µM [18]: 101%; remaining activity at 0.1 µM [19]: 100%; remaining activity at 0.1 µM [20]: 97.7%; level in plasma and brain 1 h after injection (LC-MS) [21]: below the limits of detection; half-life at 20 μM (in vitro): 7.8 min
2 | OCCN1CCN(Cc2ccc(-c3cnc4[nH]cc(-c5cccc(Cl)c5)c4c3)cc2)CC1 [Compound 12k, 2-(4-(4-(3-(3-Chlorophenyl)-1H-pyrrolo[2,3-b]pyridin-5-yl)benzyl)piperazin-1-yl)ethan-1-ol] | 94.2% | 81.3% | 87.1% | 83.1% | 89.6% | 98.3% | 82.5% | 84.4% | 95.2% | 1.81% | 45.3% | 75.1% | 96% | 75.4% | 100% | 105% | 108% | 103% | 93.1% | 89.2% | fold change in KHS activity following 12k exposure relative to 1 ([6]; 0.025 μM): 17.36 fold; remaining activity at 0.1 µM [17]: 76.7%; remaining activity at 0.1 µM [18]: 102%; remaining activity at 0.1 µM [19]: 112%; remaining activity at 0.1 µM [20]: 94.9%; level in plasma and brain 1 h after injection (LC-MS) [21]: still detectable; half-life at 20 μM (in vitro): > 120 min
